Reference: ChEMBL document CHEMBL1201861, “Genomics of Drug Sensitity in Cancer screening data, Wellcome Trust Sanger Institute”

Tests used:
Experiment in all cases: cells
P30-OHK = assay type: functional, cell-based; conditions: Homo sapiens;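 further: growth inhibition of the P30-OHK cell line, read out with a cell viability assay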
Description: SANGER: Inhibition of human P30-OHK cell growth in a cell viability assay.

EW-13 = assay type: functional, cell-based; conditions: Homo sapiens;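 further: growth inhibition of EW-13 cells, read out with a cell viability assay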
Description: SANGER: Inhibition of human EW-13 cell growth in a cell viability assay.

SK-N-FI = assay type: functional, cell-based; conditions: Homo sapiens;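 further: cell viability assay measuring growth inhibition of human SK-N-FI cells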
Description: SANGER: Inhibition of human SK-N-FI cell growth in a cell viability assay.

DB = assay type: functional, cell-based; conditions: Homo sapiens
Description: SANGER: Inhibition of human DB cell growth in a cell viability assay.

NY = assay type: functional, cell-based; conditions: Homo sapiens
Description: SANGER: Inhibition of human NY cell growth in a cell viability assay.

KM12 = assay type: functional, cell-based; conditions: Homo sapiens;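 further: KM12 cell growth inhibition, read out with a cell viability assay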
Description: SANGER: Inhibition of human KM12 cell growth in a cell viability assay.

CAS-1 = assay type: functional, cell-based; conditions: Homo sapiens;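 further: growth inhibition of CAS-1 cells, measured with a cell viability assay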
Description: SANGER: Inhibition of human CAS-1 cell growth in a cell viability assay.

KNS-81-FD = assay type: functional, cell-based; conditions: Homo sapiens;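 further: growth inhibition of KNS-81-FD cells, read out with a cell viability assay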
Description: SANGER: Inhibition of human KNS-81-FD cell growth in a cell viability assay.

GAK = assay type: functional, cell-based; conditions: Homo sapiens;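 further: cell growth inhibition read out by a cell viability assay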
Description: SANGER: Inhibition of human GAK cell growth in a cell viability assay.

NOMO-1 = assay type: functional, cell-based; conditions: Homo sapiens;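 further: growth inhibition of human NOMO-1 cells measured by a cell viability assay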
Description: SANGER: Inhibition of human NOMO-1 cell growth in a cell viability assay.

ML-2 = assay type: functional, cell-based; conditions: Homo sapiens;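 further: growth inhibition of ML-2 cells, measured with a cell viability readout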
Description: SANGER: Inhibition of human ML-2 cell growth in a cell viability assay.

KMOE-2 = assay type: functional, cell-based; conditions: Homo sapiens;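 further: growth inhibition of human KMOE-2 cells, read out with a cell viability assay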
Description: SANGER: Inhibition of human KMOE-2 cell growth in a cell viability assay.

NCI-H2228 = assay type: functional, cell-based; conditions: Homo sapiens;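 further: growth inhibition of human NCI-H2228 cells, read out by a cell viability assay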
Description: SANGER: Inhibition of human NCI-H2228 cell growth in a cell viability assay.

ETK-1 = assay type: functional, cell-based; conditions: Homo sapiens;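 further: growth inhibition of human ETK-1 cells, read out with a cell viability assay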
Description: SANGER: Inhibition of human ETK-1 cell growth in a cell viability assay.

NCI-H1395 = assay type: functional, cell-based; conditions: Homo sapiens;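 further: cell viability assay read-out quantifying reduced proliferation of human NCI-H1395 cells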
Description: SANGER: Inhibition of human NCI-H1395 cell growth in a cell viability assay.

HD-MY-Z = assay type: functional, cell-based; conditions: Homo sapiens;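 further: growth inhibition of HD-MY-Z cells, read out with a cell viability assay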
Description: SANGER: Inhibition of human HD-MY-Z cell growth in a cell viability assay.

DOHH-2 = assay type: functional, cell-based; conditions: Homo sapiens;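 further: growth inhibition of human DOHH-2 cells, read out with a cell viability assay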
Description: SANGER: Inhibition of human DOHH-2 cell growth in a cell viability assay.

LS-123 = assay type: functional, cell-based; conditions: Homo sapiens
Description: SANGER: Inhibition of human LS-123 cell growth in a cell viability assay.

RKO = assay type: functional, cell-based; conditions: Homo sapiens;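 further: growth inhibition of human RKO cells, read out with a cell viability assay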
Description: SANGER: Inhibition of human RKO cell growth in a cell viability assay.

UACC-257 = assay type: functional, cell-based; conditions: Homo sapiens
Description: SANGER: Inhibition of human UACC-257 cell growth in a cell viability assay.

769-P = assay type: functional, cell-based; conditions: Homo sapiens
Description: SANGER: Inhibition of human 769-P cell growth in a cell viability assay.

HH = assay type: functional, cell-based; conditions: Homo sapiens
Description: SANGER: Inhibition of human HH cell growth in a cell viability assay.

EOL1 = assay type: functional, cell-based; conditions: Homo sapiens;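 further: growth inhibition of EoL-1 cells, read out by a cell viability assay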
Description: SANGER: Inhibition of human EoL-1-cell cell growth in a cell viability assay.

QIMR-WIL = assay type: functional, cell-based; conditions: Homo sapiens;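 further: growth inhibition of QIMR-WIL cells, read out with a cell viability assay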
Description: SANGER: Inhibition of human QIMR-WIL cell growth in a cell viability assay.

SCC-15 = assay type: functional, cell-based; conditions: Homo sapiens;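 further: growth inhibition of SCC-15 cells, read out with a cell viability assay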
Description: SANGER: Inhibition of human SCC-15 cell growth in a cell viability assay.

SNB-75 = assay type: functional, cell-based; conditions: Homo sapiens;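 further: cell viability assay measuring growth inhibition of human SNB-75 cells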
Description: SANGER: Inhibition of human SNB75 cell growth in a cell viability assay.

HCE-4 = assay type: functional, cell-based; conditions: Homo sapiens;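 further: cell viability assay measuring inhibition of growth in the human HCE-4 cell line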
Description: SANGER: Inhibition of human HCE-4 cell growth in a cell viability assay.

SW 954 = assay type: functional, cell-based; conditions: Homo sapiens;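 further: growth inhibition of SW954 human cancer cells, read out as cell viability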
Description: SANGER: Inhibition of human SW954 cell growth in a cell viability assay.

LB2241-RCC = assay type: functional, cell-based; conditions: Homo sapiens;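 further: cell viability assay measuring how strongly the cultured human renal carcinoma line is prevented from growing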
Description: SANGER: Inhibition of human LB2241-RCC cell growth in a cell viability assay.

IST-SL1 = assay type: functional, cell-based; conditions: Homo sapiens;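 further: growth inhibition of human IST-SL1 cells, read out with a cell viability assay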
Description: SANGER: Inhibition of human IST-SL1 cell growth in a cell viability assay.

OCI-AML2 = assay type: functional, cell-based; conditions: Homo sapiens;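 further: growth inhibition of OCI-AML2 cells, read out with a cell viability assay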
Description: SANGER: Inhibition of human OCI-AML2 cell growth in a cell viability assay.

ES5 = assay type: functional, cell-based; conditions: Homo sapiens;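 further: growth inhibition of human ES5 cells, read out by a cell viability assay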
Description: SANGER: Inhibition of human ES5 cell growth in a cell viability assay.

LB2518-MEL = assay type: functional, cell-based; conditions: Homo sapiens;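 further: growth inhibition of human LB2518-MEL cells, measured with a cell viability assay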
Description: SANGER: Inhibition of human LB2518-MEL cell growth in a cell viability assay.

SNU-5 = assay type: functional, cell-based; conditions: Homo sapiens;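 further: cell viability readout used to measure growth inhibition in human NCI-SNU-5 cells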
Description: SANGER: Inhibition of human NCI-SNU-5 cell growth in a cell viability assay.

GB-1 = assay type: functional, cell-based; conditions: Homo sapiens;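 further: growth of GB-1 cells judged by a viability assay, IC50 marks the concentration inhibiting growth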
Description: SANGER: Inhibition of human GB-1 cell growth in a cell viability assay.

OS-RC-2 = assay type: functional, cell-based; conditions: Homo sapiens;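 further: growth inhibition of human OS-RC-2 cells, measured by a cell viability assay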
Description: SANGER: Inhibition of human OS-RC-2 cell growth in a cell viability assay.

OE19 = assay type: functional, cell-based; conditions: Homo sapiens;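 further: growth inhibition of OE19 cells, measured through a cell viability read-out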
Description: SANGER: Inhibition of human OE19 cell growth in a cell viability assay.

KG-1 = assay type: functional, cell-based; conditions: Homo sapiens;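 further: growth inhibition of KG-1 cells, read out by a cell viability assay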
Description: SANGER: Inhibition of human KG-1 cell growth in a cell viability assay.

HT-144 = assay type: functional, cell-based; conditions: Homo sapiens
Description: SANGER: Inhibition of human HT-144 cell growth in a cell viability assay.

SH-4 = assay type: functional, cell-based; conditions: Homo sapiens;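 further: growth inhibition of SH-4 cells, read out with a cell viability assay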
Description: SANGER: Inhibition of human SH-4 cell growth in a cell viability assay.

C-33-A = assay type: functional, cell-based; conditions: Homo sapiens;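 further: cell viability assay measuring growth inhibition of C-33-A cells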
Description: SANGER: Inhibition of human C-33-A cell growth in a cell viability assay.

KU812 cell line = assay type: functional, cell-based; conditions: Homo sapiens;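 further: growth inhibition of KU812 cells, read out with a cell viability assay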
Description: SANGER: Inhibition of human KU812 cell growth in a cell viability assay.

SK-LMS-1 = assay type: functional, cell-based; conditions: Homo sapiens;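 further: growth inhibition of human SK-LMS-1 cells, read out with a cell viability assay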
Description: SANGER: Inhibition of human SK-LMS-1 cell growth in a cell viability assay.

TE-9 = assay type: functional, cell-based; conditions: Homo sapiens;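 further: cell growth inhibition, measured with a cell viability readout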
Description: SANGER: Inhibition of human TE-9 cell growth in a cell viability assay.

DMS-79 = assay type: functional, cell-based; conditions: Homo sapiens;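 further: growth inhibition measured with a cell viability assay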
Description: SANGER: Inhibition of human DMS-79 cell growth in a cell viability assay.

NEC8 = assay type: functional, cell-based; conditions: Homo sapiens;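 further: growth inhibition of human NEC8 cells, read out by a cell viability assay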
Description: SANGER: Inhibition of human NEC8 cell growth in a cell viability assay.

NCI-H1304 = assay type: functional, cell-based; conditions: Homo sapiens;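 further: growth inhibition of the cancer cell line, measured in a cell viability assay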
Description: SANGER: Inhibition of human NCI-H1304 cell growth in a cell viability assay.

NCI-H1155 = assay type: functional, cell-based; conditions: Homo sapiens;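 further: cell growth inhibition measured by a viability assay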
Description: SANGER: Inhibition of human NCI-H1155 cell growth in a cell viability assay.

CAL-12T = assay type: functional, cell-based, Homo sapiens; conditions: Homo sapiens, CAL-12T;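 further: growth inhibition of human CAL-12T cells, read out with a cell viability assay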
Description: SANGER: Inhibition of human CAL-12T cell growth in a cell viability assay.

Ramos-2G6-4C10 = assay type: functional, cell-based; conditions: Homo sapiens;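 further: growth inhibition of the cell line, measured by a cell viability read-out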
Description: SANGER: Inhibition of human Ramos-2G6-4C10 cell growth in a cell viability assay.

U-87 MG = assay type: functional, cell-based, U-87MG ATCC; conditions: Homo sapiens;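 further: growth inhibition of the cells measured with a viability assay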
Description: SANGER: Inhibition of human U-87-MG cell growth in a cell viability assay.

MZ2-MEL = assay type: functional, cell-based; conditions: Homo sapiens;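 further: growth inhibition of MZ2-MEL cells read out with a cell viability assay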
Description: SANGER: Inhibition of human MZ2-MEL cell growth in a cell viability assay.

MOLT-4 = assay type: functional, cell-based; conditions: Homo sapiens;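 further: growth inhibition of MOLT-4 cells, determined with a cell viability readout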
Description: SANGER: Inhibition of human MOLT-4 cell growth in a cell viability assay.

MFM-223 = assay type: functional, cell-based; conditions: Homo sapiens
Description: SANGER: Inhibition of human MFM-223 cell growth in a cell viability assay.

HCE-T = assay type: functional, cell-based; conditions: Homo sapiens;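 further: cell viability assay read-out, reporting inhibition of HCE-T cell growth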
Description: SANGER: Inhibition of human HCE-T cell growth in a cell viability assay.

KARPAS-45 = assay type: functional, cell-based; conditions: Homo sapiens;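 further: inhibition of cell line growth, read out through a viability assay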
Description: SANGER: Inhibition of human KARPAS-45 cell growth in a cell viability assay.

Detroit 562 = assay type: functional, cell-based; conditions: Homo sapiens
Description: SANGER: Inhibition of human Detroit562 cell growth in a cell viability assay.

RS4-11 = assay type: functional, cell-based; conditions: Homo sapiens
Description: SANGER: Inhibition of human RS4-11 cell growth in a cell viability assay.

CTV-1 = assay type: functional, cell-based; conditions: Homo sapiens
Description: SANGER: Inhibition of human CTV-1 cell growth in a cell viability assay.

GR-ST = assay type: functional, cell-based; conditions: Homo sapiens
Description: SANGER: Inhibition of human GR-ST cell growth in a cell viability assay.

TE-6 = assay type: functional, cell-based; conditions: Homo sapiens
Description: SANGER: Inhibition of human TE-6 cell growth in a cell viability assay.

COLO-792 = assay type: functional, cell-based; conditions: Homo sapiens
Description: SANGER: Inhibition of human COLO-792 cell growth in a cell viability assay.

SF-539 = assay type: functional, cell-based; conditions: Homo sapiens
Description: SANGER: Inhibition of human SF539 cell growth in a cell viability assay.

SMILES: Cn1cc(/C=C2\C(=O)Nc3cccnc32)c2ccccc21
- IC50 (P30-OHK): > 2000 nM
- IC50 (EW-13): > 2000 nM
- IC50 (SK-N-FI): > 2000 nM
- IC50 (DB): > 2000 nM
- IC50 (NY): > 2000 nM
- IC50 (KM12): 1940 nM
- IC50 (CAS-1): > 2000 nM
- IC50 (KNS-81-FD): > 2000 nM
- IC50 (GAK): > 2000 nM
- IC50 (NOMO-1): > 2000 nM
- IC50 (ML-2): > 2000 nM
- IC50 (KMOE-2): > 2000 nM
- IC50 (NCI-H2228): > 2000 nM
- IC50 (ETK-1): > 2000 nM
- IC50 (NCI-H1395): > 2000 nM
- IC50 (HD-MY-Z): > 2000 nM
- IC50 (DOHH-2): > 2000 nM
- IC50 (LS-123): > 2000 nM
- IC50 (RKO): > 2000 nM
- IC50 (UACC-257): 1530 nM
- IC50 (769-P): > 2000 nM
- IC50 (HH): > 2000 nM
- IC50 (EOL1): > 2000 nM
- IC50 (QIMR-WIL): > 2000 nM
- IC50 (SCC-15): > 2000 nM
- IC50 (SNB-75): > 2000 nM
- IC50 (HCE-4): > 2000 nM
- IC50 (SW 954): > 2000 nM
- IC50 (LB2241-RCC): > 2000 nM
- IC50 (IST-SL1): > 2000 nM
- IC50 (OCI-AML2): > 2000 nM
- IC50 (ES5): > 2000 nM
- IC50 (LB2518-MEL): > 2000 nM
- IC50 (SNU-5): > 2000 nM
- IC50 (GB-1): > 2000 nM
- IC50 (OS-RC-2): > 2000 nM
- IC50 (OE19): > 2000 nM
- IC50 (KG-1): > 2000 nM
- IC50 (HT-144): > 2000 nM
- IC50 (SH-4): > 2000 nM
- IC50 (C-33-A): > 2000 nM
- IC50 (KU812 cell line): > 2000 nM
- IC50 (SK-LMS-1): > 2000 nM
- IC50 (TE-9): > 2000 nM
- IC50 (DMS-79): > 2000 nM
- IC50 (NEC8): 1230 nM
- IC50 (NCI-H1304): > 2000 nM
- IC50 (NCI-H1155): > 2000 nM
- IC50 (CAL-12T): > 2000 nM
- IC50 (Ramos-2G6-4C10): > 2000 nM
- IC50 (U-87 MG): > 2000 nM
- IC50 (MZ2-MEL): > 2000 nM
- IC50 (MOLT-4): > 2000 nM
- IC50 (MFM-223): > 2000 nM
- IC50 (HCE-T): > 2000 nM
- IC50 (KARPAS-45): > 2000 nM
- IC50 (Detroit 562): > 2000 nM
- IC50 (RS4-11): > 2000 nM
- IC50 (CTV-1): > 2000 nM
- IC50 (GR-ST): > 2000 nM
- IC50 (TE-6): > 2000 nM
- IC50 (COLO-792): > 2000 nM
- IC50 (SF-539): > 2000 nM

SMILES: COc1cc(Nc2c(C#N)cnc3cc(OCCCN4CCN(C)CC4)c(OC)cc23)c(Cl)cc1Cl [BOSUTINIB]
- IC50 (P30-OHK): > 2000 nM
- IC50 (EW-13): > 2000 nM
- IC50 (SK-N-FI): > 2000 nM
- IC50 (DB): > 2000 nM
- IC50 (NY): > 2000 nM
- IC50 (KM12): > 2000 nM
- IC50 (CAS-1): > 2000 nM
- IC50 (KNS-81-FD): > 2000 nM
- IC50 (NOMO-1): > 2000 nM
- IC50 (ML-2): > 2000 nM
- IC50 (KMOE-2): > 2000 nM
- IC50 (NCI-H2228): > 2000 nM
- IC50 (ETK-1): > 2000 nM
- IC50 (NCI-H1395): > 2000 nM
- IC50 (HD-MY-Z): 1640 nM
- IC50 (DOHH-2): > 2000 nM
- IC50 (LS-123): > 2000 nM
- IC50 (RKO): > 2000 nM
- IC50 (UACC-257): > 2000 nM
- IC50 (769-P): 1700 nM
- IC50 (HH): > 2000 nM
- IC50 (EOL1): 416 nM
- IC50 (QIMR-WIL): 1090 nM
- IC50 (SCC-15): 1620 nM
- IC50 (SNB-75): > 2000 nM
- IC50 (HCE-4): > 2000 nM
- IC50 (SW 954): 1550 nM
- IC50 (LB2241-RCC): 537 nM
- IC50 (IST-SL1): > 2000 nM
- IC50 (OCI-AML2): > 2000 nM
- IC50 (ES5): 1870 nM
- IC50 (LB2518-MEL): > 2000 nM
- IC50 (SNU-5): > 2000 nM
- IC50 (GB-1): > 2000 nM
- IC50 (OS-RC-2): > 2000 nM
- IC50 (OE19): > 2000 nM
- IC50 (KG-1): 1410 nM
- IC50 (HT-144): > 2000 nM
- IC50 (SH-4): > 2000 nM
- IC50 (C-33-A): > 2000 nM
- IC50 (KU812 cell line): 341 nM
- IC50 (SK-LMS-1): > 2000 nM
- IC50 (TE-9): > 2000 nM
- IC50 (DMS-79): > 2000 nM
- IC50 (NEC8): > 2000 nM
- IC50 (NCI-H1304): > 2000 nM
- IC50 (NCI-H1155): > 2000 nM
- IC50 (CAL-12T): > 2000 nM
- IC50 (Ramos-2G6-4C10): > 2000 nM
- IC50 (U-87 MG): > 2000 nM
- IC50 (MZ2-MEL): > 2000 nM
- IC50 (MOLT-4): > 2000 nM
- IC50 (MFM-223): > 2000 nM
- IC50 (HCE-T): > 2000 nM
- IC50 (KARPAS-45): 925 nM
- IC50 (Detroit 562): > 2000 nM
- IC50 (RS4-11): 486 nM
- IC50 (CTV-1): 164 nM
- IC50 (GR-ST): > 2000 nM
- IC50 (TE-6): > 2000 nM
- IC50 (COLO-792): > 2000 nM
- IC50 (SF-539): > 2000 nM
